{
  "source": "patent US20240118263A1",
  "about": "“TARGET FOR SCREENING ANTI-TUMOR DRUG, USE THEREOF AND SCREENING METHOD THEREFOR” (SHENYANG FUYANG PHARMACEUTICAL TECHNOLOGY CO., LTD., priority 2019, published 2024)",
  "key": {"LN229 and U251 cells": {"system": "LN229 and U251 cells", "test": "Annexin V apoptosis flow cytometry, glioblastoma cells", "assay_type": "cell-based", "description": "(§1) Cell apoptosis and cell cycle: Cells (2×10^5) were plated in 6-well plates and treated with different concentrations of ISP I. Then the cells were harvested and washed three times with PBS. Cells were resuspended in 100 μl binding buffer and were incubated with 5 μl APC-conjugated Annexin V working solution, a product of BD bioscience (Franklin Lakes, NJ USA), and 1 μl propidium iodide (PI), a product of Invitrogen, for 15 min at room temperature with protection from light. Data acquisition and quantification were processed with BD LSRFortessa flow cytometer, using FlowJo software (Ashland, OR USA)."}, "786-O and RCC4 cells [1]": {"system": "786-O and RCC4 cells", "test": "Cell cycle analysis by flow cytometry, RCC cells", "assay_type": "cell-based", "description": "(§2) Cell viability was assessed similarly via CKK8 analysis. […] (FIG. 10C, D).\nFor monitoring cell-cycle arrest of ISP I-treated cells, Click-iT EdU Flow Cytometry Assay Kits were used, a product of ThermoFisher Scientific. Cells were co-cultured with EdU at a concentration of 10 μM for 1 hour. After fixation and permeabilization, EdU-positive cells were labeled with Alexa Fluor 647 fluorescein. DAPI also was used for measuring total DNA content to identify differences in cell cycle phases. Data were collected by means of a BD LSRFortessa flow cytometer using FlowJo software. Cells that are positive with EdU and DAPI were in S-Phase of the cell cycle."}, "786-O and RCC4 cells [2]": {"system": "786-O and RCC4 cells", "test": "Annexin V apoptosis analysis, RCC cells", "assay_type": "cell-based", "description": "as §2, §1"}, "SELH": {"target": "SELH (Homo sapiens (Human), UniProt Q8IZQ5)", "sequence (Q8IZQ5 whole entry)": "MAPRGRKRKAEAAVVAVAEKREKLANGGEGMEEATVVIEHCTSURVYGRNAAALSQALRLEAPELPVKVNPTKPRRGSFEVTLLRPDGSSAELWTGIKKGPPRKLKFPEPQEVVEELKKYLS", "test": "Drug affinity responsive target stability (DARTS) assay in LN229 cells", "assay_type": "binding", "conditions": "LN229 lysate, ISP I 40 μg/mL, mass spectroscopy", "description": "(2) To identify ISP I's molecular target, the inventors performed drug affinity responsive target stability (DARTS) assay in LN229 cells.\nThe inventors discovered that the binding of ISP I to its target proteins temporarily locks them into a stable conformational structure, which prevents their recognition by proteases. After evading protease degradation, the identity of ISP I's target proteins was determined using mass spectroscopy.\nDARTS assay data were taken to identify the target of ISP I in vitro. For this assay, the invenots used the protocol published by Lomenick et al., Proc. Nat'l Acad. Sci. USA 106: 21984 (2009). Briefly, LN229 cells were lysed with M-PER (Pierce) supplemented with protease and phosphatase inhibitors. After centrifugation at 14,000 rpm for 15 min, lysates were diluted to the same final volume and protein concentration with M-PER and were dissolved in TNC buffer [50 mM Tris-HCl (pH 8.0), 50 mM NaCl, 10 mM CaCl2]. All steps were performed on ice or at 4° C. to help prevent premature protein degradation. […] Peptides were analyzed by LC/MS/MS on a Thermo LTQ-Orbitrap mass spectrometer with an Eksigent LC pump. For quantitative comparison of protein and peptide abundances, MS spectra were analyzed by means of the differential workflow of Rosetta Elucidator (Rosetta Inpharmatics)."}, "SELH protein expression": {"target": "SELH protein expression (Homo sapiens (Human), UniProt Q8IZQ5)", "sequence (Q8IZQ5 whole entry)": "as above", "test": "Western blot of SELH protein in ISP I-treated cells", "assay_type": "cell-based", "text": "A cycloheximide (CHX) chase assay was completed to assess ISP I's effect on SELH protein degradation."}, "[3]": {"system": "LN229-luc intracranial tumor", "test": "Intracranial LN229-luc glioblastoma xenograft mouse model", "assay_type": "in vivo, NSG mice", "conditions": "ISP I 66 mg/kg intraperitoneally daily, vs control group", "description": "The inventors first assessed ISP I's anti-tumor activity in an intracranial mouse model (FIG. 13A). NSG mice were inoculated with 1×10^5 LN229-luc cells in the right-frontal cortex. After 7 days, intracranial tumor growth was confirmed via noninvasive in vivo bioluminescence imaging and mice were randomized into ISP I or DMSO (control) treatment groups.\nMice experiments were approved by the National Institute of Neurological Disorders and Stroke (NINDS) and National Cancer Institute (NCI) Animal Use and Care Committees. For intracranial xenografts establishment, NOD-Prkde^scidIl2rg^tmiWjl (NSG) mice (6-8 weeks old from the NCI-Frederick animal facility) were inoculated intracranially with 100,000 LN229-luc cells suspended in 2 μL Hank's Balanced Salt Solution (HBSS), a product of Crystalgen (Commack, NY USA). After one week, luciferin signals were detected to confirm the survival of tumor cells in mice. The mice were assigned to the indicated groups according to the signal intensity, in order to keep the baseline balanced. ISP I was injected intraperitoneally daily at a dose of 66 mg/kg body weight for 24 days. The mice in control group were injected with the same volume of corn oil or saline. The viability of tumors was monitored every four days. […]"}, "786-O xenograft": {"system": "786-O xenograft", "test": "786-O subcutaneous xenograft model", "assay_type": "in vivo, NSG mice", "conditions": "35 mg/kg intraperitoneally daily, vs control", "description": "For subcutaneous xenografts, NSG mice (6-8 weeks old) from the NCI-Frederick animal facility and Jackson Lab (Bar Harbor, ME USA) were injected with 5×10^6 to 1×10^7 cells subcutaneously in the flank. One week later, the tumor-bearing mice were randomly assigned to different groups and made the tumor volume baseline equivalent and treated with normal saline or Zenomycin (35 mg/kg) everyday intraperitoneally. Tumors were measured using a caliper, and volume was calculated."}, "[4]": {"test": "Veterinary histopathology review of major organs and clinical chemistry", "assay_type": "in vivo", "conditions": "24 days after treatment"}, "[5]": {"system": "B16 melanoma lung metastasis", "test": "Metastatic murine melanoma (B16) lung metastasis model", "assay_type": "in vivo, C57BL/6 mice", "conditions": "ISP I 35 mg/kg intraperitoneally daily, 12 days, vs saline", "description": "In addition to the aforementioned xenograft tumor models, the anti-tumor activity of ISP I was assessed in a metastatic murine melanoma (B16) model. Mice were intravenously injected with 2×10^5 B16 cells and randomized into the following three treatment groups: ISP I (35 mg/kg), Carrimycin (56 mg/kg), Saline (control) (FIG. 13D).\nFor metastasis study, C57BL/6 mice (4-5 weeks) from Charles River Laboratories (Wilmington, MA USA) were assigned randomly to one or another of two groups, 9 animals per group. B16-F10 mouse skin melanoma cells (2×10^5) were resuspended in 100 μl saline and injected through tail vein. After treatment with ISP I at 35 mg/kg for 12 days, all mice were euthanized, and the lungs were examined for counting black metastasis dots."}},
  "note": "Entries after “also recorded” stand apart in the source; their conditions may differ.",
  "data": [
    {"smiles": "CO[C@@H]1[C@@H](O[C@@H]2O[C@H](C)[C@@H](O[C@H]3C[C@@](C)(O)[C@@H](OC(=O)CC(C)C)[C@H](C)O3)[C@H](N(C)C)[C@H]2O)[C@@H](CC=O)C[C@@H](C)[C@@H](O[C@H]2CC[C@H](N(C)C)[C@@H](C)O2)/C=C/C=C/C[C@@H](C)OC(=O)C[C@H]1O", "note": "[Isovalerylspiramycin I, 4″-isovalerylspiramycin I]", "values": [
      {"measurement": "apoptosis (Annexin V stain)", "setting": "LN229 and U251 cells", "value": "dose-dependent apoptosis"},
      {"measurement": "cell-cycle arrest", "setting": "786-O and RCC4 cells [1]", "value": "induced cell-cycle arrest in the G0/G1 phase"},
      {"measurement": "apoptosis (Annexin V)", "setting": "786-O and RCC4 cells [2]", "value": "dose-dependent apoptosis"},
      {"measurement": "target protein identified by DARTS", "setting": "SELH", "value": "SELH was the most abundant primary protein"},
      {"measurement": "SELH protein expression", "setting": "SELH protein expression; LN229 cells, different concentrations of ISP I", "value": "reduced SELH protein expression in LN229 cells in a dose-dependent manner"},
      {"measurement": "SELH levels in glioblastoma cell lines", "setting": "SELH protein expression; T98G, U118, LN229, U251, 10 μg/mL of ISP I for 24 hours", "value": "decreased SELH levels"},
      {"measurement": "tumor growth by bioluminescence imaging", "setting": "[3]", "value": "significantly reduced tumor growth; also recorded: complete response"},
      {"measurement": "tumor size and weight, 786-O xenograft", "setting": "786-O xenograft", "value": "significantly reduced tumor size and weight"},
      {"measurement": "toxicities in major organs and clinical chemistry", "setting": "[4]", "value": "no hematologic, renal, pancreatic or liver toxicities"},
      {"measurement": "lung tumor nodules", "setting": "[5]", "value": "significantly reduced lung tumor nodules"}
    ]}
  ]
}
